Data taken from patent US10626421B2, “Use of uric acid for culturing bacteria sensitive to oxygen tension” (FONDATION MEDITERRANEE INFECTION, priority 2014, dated 2020).
Several values for one entry are separate records, joined by “and”; a condition that tells them apart may be missing. Equal entries are not always repeated. Entries after “also recorded” stand apart in the source; their conditions may differ. Where two headings read alike, the source gives them in different places.

How the values were obtained:
anaerobic bacteria = assay: Culture on Columbia medium with 5% sheep blood in ambient air; format: cell-based; conditions: 1 mg/ml; ambient air or ambient air enriched with 5% of CO2
Description: These geloses inoculated with anaerobic bacteria were incubated either in ambient air or in ambient air enriched with 5% of CO2. […] These tests were conducted with a Columbia medium with 5% sheep blood having the following composition for 1 liter: […]

Clostridium butirycum = assay: Liquid hemoculture BD BACTEC Plus Aerobic/F, growth detection by CO2; format: cell-based; conditions: Aerobic with UA 400 mg/L
Description: Hemocultures of strict anaerobic bacteria were made, inoculated to 10^5 cfu/mL on a culture medium: BD BACTEC™ Plus Aerobic/F. comprising 25 ml of enriched Trypticase soya broth, with resines (Reference: 442192) at 37° C. in an aerobic atmosphere with uric acid a 400 mg/L and without uric acid and in an anaerobic atmosphere without uric acid. The detection of the growth was ensured by detection of the production of CO2 with the BD BACTEC™ 9000 Series Instrumented Blood Culture Systems device.

[1] = system: Helicobacter cinaedi strain DSMZ 5359; assay: Aerobic culture in Schaedler medium with uric acid; conditions: without starch and glucose
Clostridium tertium = assay: Liquid hemoculture BD BACTEC Plus Aerobic/F, growth detection by CO2; format: cell-based; conditions: Aerobic with UA 400 mg/L
Clostridium perfringens = format: cell-based; conditions: Aerobic with UA 400 mg/L
[2] = system: Bacteroides thetaiotaomicron; format: cell-based
[3] = system: Bacteroides thetaiotaomicron; assay: Culture in Schaedler 0.2% agar tubes, height of growth; format: cell-based
[4] = single replicates, listed as UA

SMILES	growth on Columbia medium with 5% sheep blood (anaerobic bacteria)	Averages (growth time) (Clostridium butirycum)	Growth time (Clostridium butirycum; [4])	time until bacterium established in culture [1]	Averages (growth time) (Clostridium tertium)	Growth time (Clostridium tertium; [4])	Averages (growth time) (Clostridium perfringens)	Growth time (Clostridium perfringens; [4])	growth with uric acid alone compared with mixture of uric acid, ascorbic acid and glutathion ([2]; 0.3 g/L of uric acid alone)	culture result with production of hydrogen ([2]; aerobic conditions, 24 hour incubation, 37° C., uric acid alone 0.1, 0.2 or 0.3 g/L, or 0.1 g/L each of ascorbic acid, uric acid, glutathion)	growth with uric acid alone compared with mixture of uric acid, ascorbic acid and glutathion ([2]; uric acid alone at least 0.2 g/L)	extent of culture in deoxygenated tube ([3]; 200 μg/ml)	extent of culture in deoxygenated tube ([3]; 500 μg/ml)	growth compared with ascorbic acid ([3]; 500 μg/ml, Schaedler 0.2% agar tubes)
O=c1[nH]c(=O)c2[nH]c(=O)[nH]c2[nH]1 [uric acid, 7,9-dihydro-1H-purine-2,6,8(3H)-trione]	Best growth	6.667	8 h and 6 h (2×)	≤ 24 h	4.333	4 h (2×) and 5 h	6	7 h and 5 h and 6 h	greater	positive culture	equivalent	practically occurs up to the surface	completely up to the surface; also recorded: growth up to the surface	identical
O=C1O[C@H]([C@@H](O)CO)C(O)=C1O [ascorbic acid, reference compound]	Best growth	–	–	–	–	–	–	–	–	–	–	–	–	–
